Data reported in patent US8178091B2, “Compositions and methods for the treatment of respiratory disorders” (University of Washington, priority 2007, dated 2012).
Entries after “also recorded” stand apart in the source; their conditions may differ.

Key:
epithelial cells (A549) = test: Fas-induced apoptosis, epithelial cells; format: cell-based, human; details: A549, antibody 136 μg/ml with Fas ligand
Procedure: (§1) A: Normal human lung fibroblast or distal lung epithelial cells were serum-starved overnight and then incubated with indicated concentration of IGF-1R antibody or IGFBP-3 overnight. B: A549 cells were serum-starved and incubated with IGF-1R antibody (136 μg/ml) with or without the indicated concentration of Fas ligand. Apoptosis was measured by Cell Death ELISA-plus ELISA (Roche Applied Science) per the manufacturer's directions. All experiments were done in triplicate and repeated at least twice. Apoptosis index is defined as the ratio of experimental condition OD405 nm: control (media alone) OD405 nm.
(§2) Primary normal human lung fibroblasts (Clonetics, Cambrex Bioscience, Rockland, Me.), primary distal lung human epithelial cells (Clonetics) or A549 (American Type Culture Collection, Manassas, Va.) were seeded in a 96-well tissue culture plate (2×10^4 cells/well) overnight and serum-starved for 24 hours. […] After 48 hours, apoptosis was measured. To prevent detached cells from being aspirated, plates were centrifuged at 200×g for 10 minutes, and apoptosis was measured using the Cell Death Detection ELISA-plus System (Roche Applied Science, Penzberg, Germany), which detects cytosolic histone-complexed DNA fragments. […]

fibroblasts = test: Fas-induced apoptosis, fibroblasts; format: cell-based, human; details: data not shown
Procedure: Primary normal human lung fibroblasts (Clonetics, Cambrex Bioscience, Rockland, Me.), primary distal lung human epithelial cells (Clonetics) or A549 (American Type Culture Collection, Manassas, Va.) were seeded in a 96-well tissue culture plate (2×10^4 cells/well) overnight and serum-starved for 24 hours. Function blocking antibody to the human type 1 IGF receptor (A12), a generous gift from ImClone Systems (New York, N.Y.) (Burtrum D, et al., Cancer Res 63:8912-8921 (2003); Wu J D, et al., Clin Cancer Res 11:3065-3074 (2005)), was added to media at indicated concentration for 24 hours. In some experiments, soluble Fas ligand (Alexis Biochemicals, Lausen, Switzerland) or IGFBP-3 (R&D Systems) was added to cells. […] After 48 hours, apoptosis was measured. To prevent detached cells from being aspirated, plates were centrifuged at 200×g for 10 minutes, and apoptosis was measured using the Cell Death Detection ELISA-plus System (Roche Applied Science, Penzberg, Germany), which detects cytosolic histone-complexed DNA fragments. […] The data are reported as the mean absorbance of triplicate wells mean+SE or as apoptosis index, defined as the ratio of the mean absorbance of triplicate wells in the experimental condition OD405 nm/control (media alone) OD405 nm.

bleomycin-treated mice = test: bleomycin-induced lung injury and fibrosis model; format: in vivo
Procedure: ICR male mice are anesthetized under pentobarbital (60 mg/kg, i.v.) anesthesia, the cervical region is shaved and the skin is incised for about 4 mm from under the larynx region along the median line. Next, the muscle layer covering upper trachea is peeled off to expose the trachea. Using a micro-syringe, physiological saline or bleomycin hydrochloride (0.03 mg/animal, manufactured by Nippon Kayaku) is administered tracheally (50 μl/animal) from the tracheal smooth muscle region between cricoid cartilage. After the administration, the incised region is closed and antibiotics are administered into the thigh intramuscularly in order to prevent infection. IGF-1R inhibitor, e.g., antibody to IGF-1 receptor (A12). […] Controls included bleomycin-treated animals receiving saline injection in place of A12 antibody. At various time points after the induction, each animal is sacrificed by exsanguination under pentobarbital anesthesia, and lung tissue is excised to monitor for differences in lung injury in the test versus control groups. In addition, bronchoalveolar lavage is performed, with analysis of the resulting fluid for differences in total protein, cytokines, inflammatory cells and fibroblasts or in the responsiveness of such cells to, e.g., apoptotic or other stimuli. Lung hydroxyproline content is measured as a measure of fibrosis. Changes in lung tissue histology are also monitored. Further details on the processing of lung tissue for analysis include the following. At time of sacrifice, the right main stem bronchus was tied off and the left lung was isolated and lavaged with 1 ml of PBS containing 0.6 mM EDTA warmed to 37° C. Bronchoalveolar lavage fluid (BALF) total cell count was determined by trypan blue exclusion and cell differential was determined on Diff quick (Dade Behring Ag, Düdingen, Switzerland) stained cytospins. Following brief centrifugation, cell-free supernatants were used for measurement of total protein by Bio-Rad protein assay (Bio-Rad laboratories, Hercules, Calif.). […] Hydroxyproline concentration was extrapolated from a standard curve. The right lung was inflated and fixed with 4% formaldehyde at 25 cmH2O pressure for histologic evaluation.
For these experiments, the bleomycin-induced lung injury was initiated in the manner described herein above, and the A12 anti-IGF-1R antibody was used for receptor blockade. Mice treated with bleomycin were treated with a monoclonal antibody against the IGF-1 receptor (A12) or vehicle.
For statistical analyses of the data, means of more than two groups of data were compared using one-way analysis of variance (ANOVA) with Tukey's honestly significant difference (HSD) post hoc test. In some cases, Kaplan-Meier Survival Analysis was performed using JMP IN v5.1; statistical significance was determined using log rank test.

[1] = tested on: primary mouse lung fibroblasts; test: migration assay (FluoroBlok transwell); format: cell-based, C57BL6 mice; details: IGF-1 100 ng/ml; A12 40 μg/ml preincubation
Procedure: Mouse lung fibroblasts were plated FluoroBlok transwell filters overnight, then IGF-1 (100 ng/ml), serum free media (negative control), 10% serum (positive control) was added to lower chamber. Some cells were preincubated with the blocking antibody to IGF-1R (A12, 40 μg/ml) before the addition of IGF-1. Cells were allowed to migrate through membrane for 4 hours @ 37° C. Migrated cells were counted with Fluorescent microscope. Each experiments was done in triplicate and repeated at least three times. Average cell count ±SD are presented.
For migration assays, primary mouse lung fibroblasts (50,000 cells/well) were plated in serum-free medium overnight on Fluoroblok transwell filters (8 μm pores, HTS FluoroBlok™ 24-Multiwell Insert System, BD Bioscience, Bedford, Mass.) pre-coated with fibronectin (50 μg/ml). Fluoroblok microporous membranes are specifically designed to detect by fluorescence only cells below the surface membrane. IGF-1 (100 ng/ml), 10% FBS (positive control) or serum-free media (negative control) was added to lower chamber. In some experiments, cells were preincubated with the blocking antibody to IGF-1R (A12, 40 μg/ml), for 1 hour. After 4 hours of migration, filters were fixed with formaldehyde and stained with DAPI (4′6-Diamidine-2′-phenylindole dihydrochloride, Roche, Indianapolis, Ind.). Migrated cells were counted in three predesignated fields for each filter. All experiments were done in triplicate and repeated at least three times.

[2] = tested on: primary normal human lung fibroblasts; test: apoptosis assay (Cell Death Detection ELISA-plus), lung fibroblasts; format: cell-based; details: serum starvation, increasing concentrations; listed as IGF-1R antibody
Procedure: as §1, §2

## A12: Function blocking antibody to the human type 1 IGF receptor, gift from ImClone Systems
Epithelial cells (A549)
  Fas-induced apoptosis of epithelial cells: did not alter Fas-induced apoptosis
fibroblasts
  Fas-induced apoptosis of fibroblasts: did not alter Fas-induced apoptosis
bleomycin-treated mice; 7-14 days post-bleomycin, A12 40 mg/kg i.p. vs saline
  proportion of mice surviving: significantly greater
bleomycin-treated mice; 28 days, vs saline, p=0.16
  BALF total protein concentration: trend towards decreased BALF protein concentration
bleomycin-treated mice; by d14, bleomycin-treated mice
  weight loss: 20%
bleomycin-treated mice; day 7 and day 14, vs saline
  lung hydroxyproline content (fibrosis): no significant differences
bleomycin-treated mice; day 14, vs saline
  lung histology: Only subtle histological differences; also recorded: qualitatively less fibrosis
bleomycin-treated mice; day 28, vs saline
  lung histology: Reduced evidence of fibrosis; also recorded: better preservation of lung architecture and lung size, and fewer areas of fibrosis
bleomycin-treated mice; day 28, vs saline control (p=0.03) or d14 (p=0.001)
  lung hydroxyproline content (fibrosis): significantly lower lung hydroxyproline levels; also recorded: significantly less hydroxyproline
bleomycin-treated mice; days 7 and 14, vs saline
  BALF total protein concentration: no significant difference; also recorded: no difference in BALF protein concentration
bleomycin-treated mice; n=24 per group, p=0.01 vs saline control
  survival (Kaplan-Meier): statistically significant survival benefit
bleomycin-treated mice; vs saline
  BALF differential cell count: no significant difference; also recorded: no difference in the cell differential
  BALF total cell count: no significant difference; also recorded: not statistically different
bleomycin-treated mice; vs saline control
  respiratory or systemic distress by body condition scoring: less evidence of respiratory or systemic distress
[1]
  effect on IGF-1-induced migration: inhibited; also recorded: abrogated the increased migration
[2]
  apoptosis of primary human lung fibroblasts: dose-dependent increase in apoptosis; also recorded: increased apoptosis
